The test system of the assay is HIV-IIIb. Put plainly: Antiviral assay in MT4 cells. Format: cell-based. The following applies: Human immunodeficiency virus 1, MT4, 120 h; MT-4 cells mixed with HIV-IIIb at m.o.i. 0.003; 5 days at 37° C.; CellTiter-Glo luminescence; 50% decrease in signal, a measure of HIV-1 replication. In outline:
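MT-4 cells were infected with HIV-IIIb at m.o.i. 0.003 for 1 hour, then added to 3-fold serially diluted compound (10 concentrations, quadruplicate) in medium with 10% FBS. After 5 days at 37° C, cell viability was read by CellTiter-Glo chemiluminescence.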
(ATP-based viability assays read luminescence as a measure of living cells.)

The term EC50 denotes the concentration giving half of the maximal effect. In the case of `Cn1nc(NS(C)(=O)=O)c2cccc(-c3cc4sc(C#N)nc4nc3C(Cc3cc(F)cc(F)c3)NC(=O)Cn3nc(C(F)(F)F)c4c3C(F)(F)[C@@H]3C[C@H]43)c21` (stereo partly drawn) [Compound 131, N-(1-(2-cyano-6-(1-methyl-3-(methylsulfonamido)-1H-indazol-7-yl)thiazolo[4,5-b]pyridin-5-yl)-2-(3,5-difluorophenyl)ethyl)-2-((3bS,4aR)-5,5-difluoro-3-(trifluoromethyl)-3b,4,4a,5-tetrahydro-1H-cyclopropa[3,4]cyclopenta[1,2-c]pyrazol-1-yl)acetamide], the midpoint of the response, the EC50, lay at 28.1 nM.
For `Cn1nc(NS(C)(=O)=O)c2cccc(-c3cc4sc(N5CCNC(=O)C5)nc4nc3[C@H](Cc3cc(F)cc(F)c3)NC(=O)Cn3nc(C(F)(F)F)c4c3C(F)(F)[C@@H]3C[C@H]43)c21` [Example 72, 2-((3bS,4aR)-5,5-difluoro-3-(trifluoromethyl)-3b,4,4a,5-tetrahydro-1H-cyclopropa[3,4]cyclopenta[1,2-c]pyrazol-1-yl)-N—((S)-2-(3,5-difluorophenyl)-1-(6-(1-methyl-3-(methylsulfonamido)-1H-indazol-7-yl)-2-(3-oxopiperazin-1-yl)thiazolo[4,5-b]pyridin-5-yl)ethyl)acetamide], the EC50 was determined as 32 nM.
Under `NC(=O)c1cc(-c2cc3sc(NC4COC4)nc3nc2[C@H](Cc2cc(F)cc(F)c2)NC(=O)Cn2nc(C(F)F)c3c2C(F)(F)CCC3(F)F)ccc1F` [Compound 10, (S)-5-(5-(1-(2-(3-(difluoromethyl)-4,4,7,7-tetrafluoro-4,5,6,7-tetrahydro-1H-indazol-1-yl)acetamido)-2-(3,5-difluorophenyl)ethyl)-2-(oxetan-3-ylamino)thiazolo[4,5-b]pyridin-6-yl)-2-fluorobenzamide] stands 384 nM.
Under `Cn1nc(N)c2cccc(-c3cc4sc(N5CC(C)(O)C5)nc4nc3[C@H](Cc3cc(F)cc(F)c3)NC(=O)Cn3nc(C(F)F)c4c3C3CC3CC4)c21` (stereo partly drawn) [Compound 50, N—((S)-1-(6-(3-amino-1-methyl-1H-indazol-7-yl)-2-(3-hydroxy-3-methylazetidin-1-yl)thiazolo[4,5-b]pyridin-5-yl)-2-(3,5-difluorophenyl)ethyl)-2-(3-(difluoromethyl)-5,5a,6,6a-tetrahydrocyclopropa[g]indazol-1(4H)-yl)acetamide] stands 1.3 nM; under `CC1(O)CN(c2nc3nc([C@H](Cc4cc(F)cc(F)c4)NC(=O)Cn4nc(C(F)(F)F)c5c4C(F)(F)[C@@H]4C[C@H]54)c(-c4ccc5n[nH]c(=O)n5c4)cc3s2)C1` [Compound 48, 2-((3bS,4aR)-5,5-difluoro-3-(trifluoromethyl)-3b,4,4a,5-tetrahydro-1H-cyclopropa[3,4]cyclopenta[1,2-c]pyrazol-1-yl)-N—((S)-2-(3,5-difluorophenyl)-1-(2-(3-hydroxy-3-methylazetidin-1-yl)-6-(3-oxo-2,3-dihydro-[1,2,4]triazolo[4,3-a]pyridin-6-yl)thiazolo[4,5-b]pyridin-5-yl)ethyl)acetamide], 249 nM; under `Cn1nc(N)c2cccc(-c3cc4sc(N5CC(C)(O)C5)nc4nc3[C@H](Cc3cc(F)cc(F)c3)NC(=O)Cn3nc(C(F)F)c4c3C(F)(F)[C@@H]3C[C@H]43)c21` [Compound 59, N—((S)-1-(6-(3-amino-1-methyl-1H-indazol-7-yl)-2-(3-hydroxy-3-methylazetidin-1-yl)thiazolo[4,5-b]pyridin-5-yl)-2-(3,5-difluorophenyl)ethyl)-2-((3bS,4aR)-3-(difluoromethyl)-5,5-difluoro-3b,4,4a,5-tetrahydro-1H-cyclopropa[3,4]cyclopenta[1,2-c]pyrazol-1-yl)acetamide], 16.3 nM.

Values taken from US12077537B2 (Gilead Sciences, Inc., priority 2020, dated 2024).
